# Read-outs that look alike come from different tables or passages of the source. Marks after values point to notes of the source that are not given here.
# How the values were obtained:
# [1] = Experimental measurement of LogPow by RP-HPLC; format: physicochemical; conditions: for logPow^exp: RP-HPLC, water/methanol 80/20, 25 °C; for logPow (approximate): theoretical and experimental values in agreement
# Method: Reverse phase high performance liquid chromatography (RP-HPLC) analysis was performed to correlate the hydrophobicity of the complexes with their retention time.
# [2] = system: DNA of MDA-MB-231 cell line; assay: DNA-bound Pt(II) by ICP-MS; format: cell-based, human
# Method: First, 200,000 cells/well were seeded in the complete medium in a 12-well tray. The day after, the old media were discarded, and the cells were challenged with compound-containing media for 6 h (CisPt: 30 and 60 μM; 1: 25 and 50 μM; 2: 1 and 2 μM; 3: 50 and 100 μM). An equal percentage of DMSO was added to control samples. The cells were thus washed two times with cold phosphate buffered saline (PBS) and digested with 700 μL of a homemade digest buffer (Tris 50 mM pH 8, NaCl 100 mM, EDTA 100 mM, and SDS 1%). The suspensions were moved to vials, and 400 μL of NaCl-saturated solution was added to them. The suspensions were thus vortexed and centrifuged at 12,000 rpm for 5 min. The supernatants were retrieved, added with 500 μL of 2-propanol, vortexed, and centrifuged at 12,000 rpm for 15 min to let DNA precipitate. […] DNA-bound Pt(II) was quantified through inductively coupled plasma-mass spectrometry (ICP-MS), and data were normalized to DNA content quantified with NanoDrop Site.
# (§1) (A and C) Cells were seeded in complete medium (400,000 cells/well); the day after old media were discarded and cells were incubated for 6 h with media-containing compounds at the indicated concentrations, then intracellular protein were extracted, and intracellular ^195Pt was evaluated as ng ^195Pt over protein concentration (A) and further normalized vs the compounds’ working concentrations provided (C). […]
# MDA-MB-231 cell line = assay: Intracellular Pt(II) content by ICP-MS; format: cell-based, human; conditions: 6 h, Figure 6A
# Method: First, 200,000 cells/well were seeded in complete medium in a 12-well tray. […] These concentrations correspond to IC50 and IC50/2 of each compound according to our previous work aimed at analyzing the cytotoxic performance of these Pt(II) complexes in the MDA.MB.231 cell line.[13] […] An equal percentage of DMSO was added to control samples. Cells were thus washed two times with cold PBS and lysed with 200 μL of a homemade lysis buffer (Tris 50 mM pH 7, NaCl 150 mM, NP40 1% v/v, protease, and phosphatase inhibitors 1% v/v) for 30 min at 4 °C. The intracellular Pt(II) amount was quantified through ICP-MS (BRUKER aurora M90 ICP-MS, MA, USA), and data were normalized to the total protein content evaluated via bicinchoninic acid assay.
# as §1, with “(C). Cisplatin was used as the positive control. An equal amount of DMSO was supplied in each experimental condition. Data are presented as mean ± SD of three different experiments; when invisible, the error bar is included into the bar line.” for “(C).”
# [3] = Stability in solution followed by absorption spectra over time; format: physicochemical; conditions: for fate in aqueous environment (aquation): DMSO/buffer 0.5% v/v pH 7.4, within 24 h, spectra supported by TD-DFT; for solubility in aqueous medium: inferred from reduction of optical density over time
# Method: Spectrofluorimetric-grade solvents were used for the photophysical investigations. The buffer solution (pH 7.4) was prepared by dissolving one phosphate buffer saline table in 200 mL of water. Compounds 1–3 were dissolved in DMSO and then diluted to reach a final concentration of 1 × 10^–5 M in DMSO as well as DMSO/buffer 0.5% v/v. A PerkinElmer Lambda 900 spectrophotometer was employed to obtain the UV–visible absorption spectra, using 10 mm path-length quartz cuvettes.
# The photophysical properties of 1–3 in DMSO have been previously discussed.[13],[35] In order to investigate the tendency of the Pt(II) complexes to undergo hydrolysis reactions giving the corresponding aqua-complexes, their stability in aqueous solution was monitored spectrophotometrically, acquiring the absorption profiles over time (t = 0, 3, 6, and 24 h). In particular, absorption spectra were registered by dissolving 1–3 in DMSO then diluted in buffer solution (DMSO 0.5% v/v). Moreover, in order to follow a possible aquation reaction with a slower kinetics, absorption spectra were recorded dissolving 1–3 in DMSO containing a low water content, by using a nonanhydrous spectroscopic-grade solvent.
# Calf Thymus DNA (CT-DNA) = assay: DNA binding experiment: UV–vis absorption with CT-DNA; conditions: complex 50 μM, PBS pH 7.4, increasing CT-DNA
# Method: In a quartz cuvette (path length 1 cm), the UV–vis spectra were recorded of a PBS buffer solution (pH 7.4)-containing complex (1, 2, or 3, 50 μM, 0.5% DMF). The UV–vis absorption spectra were successively recorded following each addition of aliquots of Calf Thymus DNA (CT-DNA, 50 μM) after an equilibration time of 1 h.[32],[33]
# [4] = system: human triple-negative breast cancer cell line MDA-MB-231; parameters: method as in doi:10.1002/aoc.5455; conditions: cited from earlier work
# [5] = parameters: method as in PMID 21450275; conditions: cited from earlier work
chromatographic logP [1],Compound,"accumulation of platinum in the DNA, corrected for working concentration ([2]; 2 μM 1 compared to cisplatin 60 and 150 μM 2, 6 h, Figure 6D) [fold]",cytosolic localization (intracellular Pt) (MDA-MB-231 cell line; compared to cisplatin and the other compounds),logPow^exp [1],logPow (approximate) [1],fate in aqueous environment (aquation) [3],UV–vis spectral change on addition of CT-DNA (Calf Thymus DNA (CT-DNA)),IC50 [4] [µM],"increase in DNA-bound ^195Pt compared to cisplatin 60 μM ([2]; highest tested concentration, 6 h, Figure 6B) [fold]",intracellular protein-bound Pt compared to the highest cisplatin dose (MDA-MB-231 cell line; highest tested concentration) [fold],solubility in aqueous medium [3],logPow^exp [5]
1.87,O=C1c2ccccc2C(=O)c2c1ccc(O)c2O [alizarine],,,,,,,,,,,
,"CCCC[N+](CCCC)(CCCC)CCCC.O=C1c2ccccc2C(=O)c2c1ccc1c2[O][Pt-]([c]2ccccc2-c2ccccn2)[O]1 (stereo not shown) [Complex 1, NBu4[(PhPy)Pt(Aliz)]]",10,barely localizes into cytosol,3.33,around 3,complete detachment of the (O^O) ligand,decrease of the band at 545 nm,1.9 ± 1.6,,,,
,"Brc1c(Br)c(Br)c2c(c1Br)[O][Pt-]([c]1ccccc1-c1ccccn1)[O]2.CCCC[N+](CCCC)(CCCC)CCCC [Complex 2, NBu4[(PhPy)Pt(BrCat)]]",,,4.53,~4.5,converted to the corresponding mono-aquo complexes,decrease of the band at 545 nm,52.8 ± 3.9,1.6,3,poor solubility,
,"N.N.O=C1c2ccccc2C(=O)c2c1ccc1c2[O][Pt][O]1 [Complex 3, [(NH3)2Pt(Aliz)]]",,,0.47,,converted to the corresponding mono-aquo complexes,decrease of the band at 545 nm,127 ± 2.7,,,poor solubility,
,N.N.O=C([O-])C1(C(=O)[O-])CCC1.[Pt+2] [carboplatin],,,,,,,,,,,-2.30 ^a

# Source: publication PMC9092348, “Cytotoxicity of Alizarine versus Tetrabromocathecol Cyclometalated Pt(II) Theranostic Agents: A Combined Experimental and Computational Investigation” (Inorganic Chemistry, 2022)
